ChEMBL document CHEMBL5550122, “Photodynamic anticancer activity evaluation of novel 5-aminolevulinic acid and 3-hydroxypyridinone conjugates” (Bioorg Med Chem, 2024)
The source made the active and inactive calls. The rule behind the calls is not given here.

Test system: A-375
Experiment: Cytotoxicity against human A-375 cells assessed as reduction in cell viability preincubated for 4 hrs under dark condition followed by irradiation with blue light at 2.5 J.cm^-2 energy level for 5 mins and measured after 18 hrs by MTT assay
Assay type: functional, cell-based
Conditions: A-375, light or radiation study

For `COCCCn1c(C)cc(=O)c(O)c1COC(=O)CCC(=O)CN.Cl`, which IC50 is on record?
Its IC50 is 50.6 µM.

With `CCCCn1c(C)cc(=O)c(O)c1COC(=O)CCC(=O)CN.Cl` as the compound, how does the IC50 read?
The IC50 was 41.7 µM.

Test system: HeLa
Experiment: Cytotoxicity against human HeLa cells assessed as reduction in cell viability preincubated for 4 hrs under dark condition followed by irradiation with blue light at 2.5 J.cm^-2 energy level for 5 mins and measured after 18 hrs by MTT assay
Assay type: functional, cell-based
Conditions: light or radiation study

With `COCCCn1c(C)cc(=O)c(O)c1COC(=O)CCC(=O)CN.Cl` as the compound, how does the IC50 read?
The IC50 was 65.7 µM.

With `CCCCn1c(C)cc(=O)c(O)c1COC(=O)CCC(=O)CN.Cl` as the compound, how does the IC50 read?
Its IC50 is 68.8 µM.

Test system: A-375
Experiment: Cytotoxicity against human A-375 cells assessed as reduction in cell viability at 100 uM incubated for 4 hrs under dark condition by MTT assay
Assay type: functional, cell-based
Conditions: not given

Which Activity does the source give for `COCCCn1c(C)cc(=O)c(O)c1COC(=O)CCC(=O)CN.Cl` here?
Its Activity is “inactive”.

For `CCCCn1c(C)cc(=O)c(O)c1COC(=O)CCC(=O)CN.Cl`, which Activity is on record?
Its Activity is “inactive”.

Test system: MCF7
Experiment: Cytotoxicity against human MCF7 cells assessed as reduction in cell viability preincubated for 4 hrs under dark condition in presence of 5-aminolevulinic acid followed by irradiation with blue light at 2.5 J.cm^-2 energy level for 5 mins and measured after 18 hrs by MTT assay
Assay type: functional, cell-based
Conditions: MCF7, light or radiation study

Which IC50 does the source give for `Cc1c(O)c(=O)ccn1C` [DEFERIPRONE] here?
Its IC50 is 65 µM.

Test system: HeLa
Experiment: Cytotoxicity against human HeLa cells assessed as reduction in cell viability at 100 uM incubated for 4 hrs under dark condition by MTT assay
Assay type: functional, cell-based
Conditions: not given

For `COCCCn1c(C)cc(=O)c(O)c1COC(=O)CCC(=O)CN.Cl`, which Activity is on record?
Its Activity is “inactive”.

For `CCCCn1c(C)cc(=O)c(O)c1COC(=O)CCC(=O)CN.Cl`, which Activity is on record?
Its Activity is “inactive”.

Test system: A-375
Experiment: Cytotoxicity against human A-375 cells assessed as reduction in cell viability at 100 to 400 uM preincubated for 4 hrs under dark condition followed by irradiation with blue light at 5 J.cm^-2 energy level and measured after 18 hrs by MTT assay
Assay type: functional, cell-based
Conditions: dose 100-400 µM, time 22.0 hrs

For `COC(=O)CCC(=O)CNC(=O)[C@H](CC(C)C)NC(=O)Cn1ccc(=O)c(O)c1C`, which Activity is on record?
Its Activity is “inactive”.

For `COC(=O)CCC(=O)CNC(=O)CCCCn1cc(O)c(=O)cc1CO`, which Activity is on record?
Its Activity is “inactive”.

Which Activity does the source give for `COC(=O)CCC(=O)CNC(=O)CCCCCn1cc(O)c(=O)cc1C` here?
The Activity was “inactive”.

Test system: HeLa
Experiment: Cytotoxicity against human HeLa cells assessed as reduction in cell viability at 100 to 400 uM incubated for 4 hrs under dark condition by MTT assay
Assay type: functional, cell-based
Conditions: dose 100-400 µM

Which Activity does the source give for `COC(=O)CCC(=O)CNC(=O)[C@H](CC(C)C)NC(=O)Cn1ccc(=O)c(O)c1C` here?
Its Activity is “inactive”.

With `COC(=O)CCC(=O)CNC(=O)CCCCn1cc(O)c(=O)cc1CO` as the compound, how does the Activity read?
Its Activity is “inactive”.

For `COC(=O)CCC(=O)CNC(=O)CCCCCn1cc(O)c(=O)cc1C`, which Activity is on record?
The Activity was “inactive”.

Test system: not listed separately
Experiment: Drug metabolism assessed as esterase (unknown origin) mediated hydrolysis by measuring 5-Aminolevulinic acid formation
Assay type: ADME
Conditions: human

With `COCCCn1c(C)cc(=O)c(O)c1COC(=O)CCC(=O)CN.Cl` as the compound, how does the Drug metabolism read?
Its Drug metabolism is “Metabolite_Detected”.

Which Drug metabolism does the source give for `CCCCn1c(C)cc(=O)c(O)c1COC(=O)CCC(=O)CN.Cl` here?
The Drug metabolism was “Metabolite_Detected”.

Test system: not listed separately
Experiment: Prodrug release in human MCF7 cells assessed as 3-[(1Z,4Z,9Z,15Z)-7-(2-carboxyethyl)-3,8,12,17-tetramethyl-13,18-divinyl-21,23-dihydroporphyrin-2-yl]propanoic acid release by measuring increase in fluorescence intensity at 20 to 80 uM by microplate reader analysis
Assay type: ADME, cell-based
Conditions: mcf7, 80 µM, dose 20-80 µM

Which Drug metabolism does the source give for `COCCCn1c(C)cc(=O)c(O)c1COC(=O)CCC(=O)CN.Cl` here?
The Drug metabolism was “Metabolite_Detected”.

Which Drug metabolism does the source give for `CCCCn1c(C)cc(=O)c(O)c1COC(=O)CCC(=O)CN.Cl` here?
The Drug metabolism was “Metabolite_Detected”.

Test system: A-375
Experiment: Cytotoxicity against human A-375 cells assessed as reduction in cell viability at 100 to 400 uM incubated for 4 hrs under dark condition by MTT assay
Assay type: functional, cell-based
Conditions: dose 100-400 µM

With `COC(=O)CCC(=O)CNC(=O)[C@H](CC(C)C)NC(=O)Cn1ccc(=O)c(O)c1C` as the compound, how does the Activity read?
The Activity was “inactive”.

Which Activity does the source give for `COC(=O)CCC(=O)CNC(=O)CCCCn1cc(O)c(=O)cc1CO` here?
The Activity was “inactive”.

Which Activity does the source give for `COC(=O)CCC(=O)CNC(=O)CCCCCn1cc(O)c(=O)cc1C` here?
The Activity was “inactive”.

Test system: HeLa
Experiment: Cytotoxicity against human HeLa cells assessed as reduction in cell viability preincubated for 4 hrs under dark condition in presence of 5-aminolevulinic acid followed by irradiation with blue light at 2.5 J.cm^-2 energy level for 5 mins and measured after 18 hrs by MTT assay
Assay type: functional, cell-based
Conditions: light or radiation study

With `Cc1c(O)c(=O)ccn1C` [DEFERIPRONE] as the compound, how does the IC50 read?
The IC50 was 61.8 µM.

Test system: not listed separately
Experiment: Prodrug release in human Hela cells assessed as 3-[(1Z,4Z,9Z,15Z)-7-(2-carboxyethyl)-3,8,12,17-tetramethyl-13,18-divinyl-21,23-dihydroporphyrin-2-yl]propanoic acid release by measuring increase in fluorescence intensity at 20 to 80 uM by microplate reader analysis
Assay type: ADME, cell-based
Conditions: dose 20-80 µM

For `COCCCn1c(C)cc(=O)c(O)c1COC(=O)CCC(=O)CN.Cl`, which Drug metabolism is on record?
Its Drug metabolism is “Metabolite_Detected”.

For `CCCCn1c(C)cc(=O)c(O)c1COC(=O)CCC(=O)CN.Cl`, which Drug metabolism is on record?
Its Drug metabolism is “Metabolite_Detected”.

Test system: MCF7
Experiment: Cytotoxicity against human MCF7 cells assessed as reduction in cell viability at 100 uM incubated for 4 hrs under dark condition by MTT assay
Assay type: functional, cell-based
Conditions: not given

With `COCCCn1c(C)cc(=O)c(O)c1COC(=O)CCC(=O)CN.Cl` as the compound, how does the Activity read?
The Activity was “inactive”.

With `CCCCn1c(C)cc(=O)c(O)c1COC(=O)CCC(=O)CN.Cl` as the compound, how does the Activity read?
The Activity was “inactive”.

Test system: not listed separately
Experiment: Prodrug release in human A-375 cells assessed as 3-[(1Z,4Z,9Z,15Z)-7-(2-carboxyethyl)-3,8,12,17-tetramethyl-13,18-divinyl-21,23-dihydroporphyrin-2-yl]propanoic acid release by measuring increase in fluorescence intensity at 20 to 80 uM by microplate reader analysis
Assay type: ADME, cell-based
Conditions: a-375, 80 µM, dose 20-80 µM

For `COCCCn1c(C)cc(=O)c(O)c1COC(=O)CCC(=O)CN.Cl`, which Drug metabolism is on record?
Its Drug metabolism is “Metabolite_Detected”.

With `CCCCn1c(C)cc(=O)c(O)c1COC(=O)CCC(=O)CN.Cl` as the compound, how does the Drug metabolism read?
The Drug metabolism was “Metabolite_Detected”.

Test system: A-375
Experiment: Cytotoxicity against human A-375 cells assessed as reduction in cell viability preincubated for 4 hrs under dark condition in presence of 5-aminolevulinic acid followed by irradiation with blue light at 2.5 J.cm^-2 energy level for 5 mins and measured after 18 hrs by MTT assay
Assay type: functional, cell-based
Conditions: A-375, light or radiation study

For `Cc1c(O)c(=O)ccn1C` [DEFERIPRONE], which IC50 is on record?
The IC50 was 27.2 µM.

Test system: HeLa
Experiment: Cytotoxicity against human HeLa cells assessed as reduction in cell viability at 100 to 400 uM preincubated for 4 hrs under dark condition followed by irradiation with blue light at 5 J.cm^-2 energy level and measured after 18 hrs by MTT assay
Assay type: functional, cell-based
Conditions: dose 100-400 µM, time 22.0 hrs

With `COC(=O)CCC(=O)CNC(=O)[C@H](CC(C)C)NC(=O)Cn1ccc(=O)c(O)c1C` as the compound, how does the Activity read?
Its Activity is “inactive”.

Which Activity does the source give for `COC(=O)CCC(=O)CNC(=O)CCCCn1cc(O)c(=O)cc1CO` here?
The Activity was “inactive”.

Which Activity does the source give for `COC(=O)CCC(=O)CNC(=O)CCCCCn1cc(O)c(=O)cc1C` here?
The Activity was “inactive”.

Test system: MCF7
Experiment: Cytotoxicity against human MCF7 cells assessed as reduction in cell viability at 100 to 400 uM preincubated for 4 hrs under dark condition followed by irradiation with blue light at 5 J.cm^-2 energy level and measured after 18 hrs by MTT assay
Assay type: functional, cell-based
Conditions: dose 100-400 µM, time 22.0 hrs

Which Activity does the source give for `COC(=O)CCC(=O)CNC(=O)[C@H](CC(C)C)NC(=O)Cn1ccc(=O)c(O)c1C` here?
The Activity was “inactive”.

For `COC(=O)CCC(=O)CNC(=O)CCCCn1cc(O)c(=O)cc1CO`, which Activity is on record?
Its Activity is “inactive”.

Which Activity does the source give for `COC(=O)CCC(=O)CNC(=O)CCCCCn1cc(O)c(=O)cc1C` here?
Its Activity is “inactive”.

Test system: MCF7
Experiment: Cytotoxicity against human MCF7 cells assessed as reduction in cell viability preincubated for 4 hrs under dark condition followed by irradiation with blue light at 2.5 J.cm^-2 energy level for 5 mins and measured after 18 hrs by MTT assay
Assay type: functional, cell-based
Conditions: MCF7, light or radiation study

With `COCCCn1c(C)cc(=O)c(O)c1COC(=O)CCC(=O)CN.Cl` as the compound, how does the IC50 read?
Its IC50 is 57.2 µM.

For `CCCCn1c(C)cc(=O)c(O)c1COC(=O)CCC(=O)CN.Cl`, which IC50 is on record?
The IC50 was 38 µM.

Test system: not listed separately
Experiment: Drug metabolism assessed as esterase (unknown origin) mediated hydrolysis by measuring hydroxypyridinone formation
Assay type: ADME
Conditions: human

For `COCCCn1c(C)cc(=O)c(O)c1COC(=O)CCC(=O)CN.Cl`, which Drug metabolism is on record?
The Drug metabolism was “Metabolite_Detected”.

Which Drug metabolism does the source give for `CCCCn1c(C)cc(=O)c(O)c1COC(=O)CCC(=O)CN.Cl` here?
The Drug metabolism was “Metabolite_Detected”.

Test system: MCF7
Experiment: Cytotoxicity against human MCF7 cells assessed as reduction in cell viability at 100 to 400 uM incubated for 4 hrs under dark condition by MTT assay
Assay type: functional, cell-based
Conditions: dose 100-400 µM

For `COC(=O)CCC(=O)CNC(=O)[C@H](CC(C)C)NC(=O)Cn1ccc(=O)c(O)c1C`, which Activity is on record?
The Activity was “inactive”.

Which Activity does the source give for `COC(=O)CCC(=O)CNC(=O)CCCCn1cc(O)c(=O)cc1CO` here?
Its Activity is “inactive”.

With `COC(=O)CCC(=O)CNC(=O)CCCCCn1cc(O)c(=O)cc1C` as the compound, how does the Activity read?
Its Activity is “inactive”.
